Where only a bound is given, the exact number is not on record here.

Data set [1] deals with Calcitonin gene-related peptide type 1 receptor (Homo sapiens, UniProt O60894+Q16602). Nature of the data set: Displacement of [125I]hCGRP from human cloned CGRP receptor expressed in HEK293 cells. It counts as cell-based. Background: Displacement assays read how much labelled ligand stays bound in the presence of the test substance.
The target in data set [2] is Calcitonin gene-related peptide type 1 receptor (Homo sapiens, UniProt Q16602). Nature of the data set: Inhibition of CGRP-induced cAMP production in E10 cells. It counts as functional, cell-based, Mus musculus.
Chain of Calcitonin gene-related peptide type 1 receptor (Homo sapiens, UniProt Q16602) (Q16602 whole entry): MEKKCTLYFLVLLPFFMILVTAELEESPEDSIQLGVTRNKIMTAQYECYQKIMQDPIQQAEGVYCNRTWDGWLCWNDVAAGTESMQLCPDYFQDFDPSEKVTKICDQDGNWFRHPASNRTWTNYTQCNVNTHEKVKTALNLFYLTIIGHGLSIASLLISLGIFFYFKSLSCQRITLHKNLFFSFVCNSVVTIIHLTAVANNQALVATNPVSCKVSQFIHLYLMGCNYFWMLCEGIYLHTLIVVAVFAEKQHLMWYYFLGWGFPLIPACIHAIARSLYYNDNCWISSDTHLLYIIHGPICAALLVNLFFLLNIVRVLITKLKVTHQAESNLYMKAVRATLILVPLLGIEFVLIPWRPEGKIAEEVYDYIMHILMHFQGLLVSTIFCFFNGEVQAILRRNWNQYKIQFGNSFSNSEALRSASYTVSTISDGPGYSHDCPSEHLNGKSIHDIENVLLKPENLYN
Data set [3] is described as follows: Clearance in rat at 2 mpk, iv. The settings on record: in vivo, 2 mg/kg.
Data set [4] can be described thus: Bioavailability in rat at 10 mg/kg, po. It counts as ADME, organism-based. The settings on record: in vivo.
For a further data set, the system named is Rattus norvegicus. Nature of the data set: Volume of distribution in rat at 2 mpk, iv. The settings on record: in vivo, 2 mg/kg.
Data set [5] in a line: Half life in rat at 2 mpk, iv. It counts as ADME, organism-based. As to conditions: in vivo, 2 mg/kg.
Data set [6] can be described thus: Solubility at pH 7.4. It counts as physicochemical. As to conditions: buffer.
In the next data set the target is Cytochrome P450 3A4 (Homo sapiens, UniProt P08684). Nature of the data set: Inhibition of CYP3A4. It counts as ADME.
Chain of Cytochrome P450 3A4 (P08684 whole entry): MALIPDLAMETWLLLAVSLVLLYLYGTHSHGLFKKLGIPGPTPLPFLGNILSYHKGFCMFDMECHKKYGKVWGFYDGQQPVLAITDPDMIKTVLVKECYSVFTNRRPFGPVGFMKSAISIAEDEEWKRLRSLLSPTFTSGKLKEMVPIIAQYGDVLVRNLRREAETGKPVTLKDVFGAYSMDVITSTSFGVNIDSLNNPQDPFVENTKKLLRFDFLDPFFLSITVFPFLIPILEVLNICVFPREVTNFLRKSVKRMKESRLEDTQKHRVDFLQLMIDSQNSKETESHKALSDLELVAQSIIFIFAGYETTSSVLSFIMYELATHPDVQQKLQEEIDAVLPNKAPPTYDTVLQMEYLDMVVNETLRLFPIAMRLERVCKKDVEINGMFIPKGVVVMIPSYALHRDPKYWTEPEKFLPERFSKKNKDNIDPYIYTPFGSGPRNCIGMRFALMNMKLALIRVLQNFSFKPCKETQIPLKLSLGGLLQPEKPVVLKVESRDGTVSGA
The nature of data set [7]: Bioavailability in rhesus at 2 mg/kg, po. It counts as ADME, organism-based, Macaca mulatta. As to conditions: rhesus monkey, in vivo.
A further data set deals with Canis familiaris. Nature of the data set: Volume of distribution in dog at 0.5 mpk, iv. As to conditions: in vivo, 0.5 mg/kg.
A short description of data set [8]: Clearance in rhesus at 0.5 mpk, iv. As to conditions: Macaca mulatta, rhesus monkey, in vivo, 0.5 mg/kg.
The target of a further data set is Cytochrome P450 2D6 (Homo sapiens, UniProt P10635). Nature of the data set: Inhibition of CYP2D6. It counts as ADME.
Chain of Cytochrome P450 2D6 (P10635 whole entry): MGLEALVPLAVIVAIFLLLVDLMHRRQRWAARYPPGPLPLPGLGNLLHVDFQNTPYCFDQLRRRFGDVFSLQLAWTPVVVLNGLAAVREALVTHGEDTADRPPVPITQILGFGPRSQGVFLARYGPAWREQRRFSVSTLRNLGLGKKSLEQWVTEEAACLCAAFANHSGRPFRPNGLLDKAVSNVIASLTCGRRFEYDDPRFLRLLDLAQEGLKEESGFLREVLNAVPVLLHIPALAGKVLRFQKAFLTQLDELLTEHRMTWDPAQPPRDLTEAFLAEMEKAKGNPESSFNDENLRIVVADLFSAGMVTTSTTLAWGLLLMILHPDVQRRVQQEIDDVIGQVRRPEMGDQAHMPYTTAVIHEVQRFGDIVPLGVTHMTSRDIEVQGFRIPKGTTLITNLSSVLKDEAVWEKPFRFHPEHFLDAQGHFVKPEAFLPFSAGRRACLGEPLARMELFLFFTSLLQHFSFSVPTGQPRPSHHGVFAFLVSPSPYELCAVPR
A further data set deals with Cytochrome P450 2C9 (Homo sapiens, UniProt P11712). Nature of the data set: Inhibition of CYP2C9. It counts as ADME.
Chain of Cytochrome P450 2C9 (P11712 whole entry): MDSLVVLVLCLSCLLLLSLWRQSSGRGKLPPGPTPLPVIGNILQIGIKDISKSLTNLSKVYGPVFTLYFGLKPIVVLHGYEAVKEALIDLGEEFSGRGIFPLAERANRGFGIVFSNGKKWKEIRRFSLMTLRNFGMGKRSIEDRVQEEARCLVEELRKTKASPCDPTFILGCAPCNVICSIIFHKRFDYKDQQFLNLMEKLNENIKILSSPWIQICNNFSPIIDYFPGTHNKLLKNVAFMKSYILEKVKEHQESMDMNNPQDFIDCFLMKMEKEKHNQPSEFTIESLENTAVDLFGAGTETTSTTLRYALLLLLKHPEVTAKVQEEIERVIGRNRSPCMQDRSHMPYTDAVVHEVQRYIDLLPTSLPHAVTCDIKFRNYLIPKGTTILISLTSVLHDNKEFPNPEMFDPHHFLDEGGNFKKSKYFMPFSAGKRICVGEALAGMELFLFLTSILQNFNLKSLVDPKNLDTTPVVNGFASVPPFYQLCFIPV
Data set [9] can be described thus: Clearance in dog at 0.5 mpk, iv. As to conditions: in vivo, 0.5 mg/kg.
The nature of data set [10]: Half life in rhesus at 0.5 mpk, iv. It counts as ADME, organism-based, Macaca mulatta. The settings on record: rhesus monkey, in vivo, 0.5 mg/kg.
Data set [11] is described as follows: Bioavailability in dog at 2 mg/kg, po. It counts as ADME, organism-based, Canis lupus familiaris. As to conditions: in vivo.
Data set [12] can be described thus: Half life in dog at 0.5 mg/kg, iv. It counts as ADME, organism-based, Canis lupus familiaris. As to conditions: in vivo. Further details: dose 0.5 mg/kg, route intravenous.
In the next data set the test system is Rhesus monkey. Nature of the data set: Volume of distribution in rhesus at 0.5 mpk, iv. The settings on record: Macaca mulatta, in vivo, 0.5 mg/kg.

Chain of Calcitonin gene-related peptide type 1 receptor (Homo sapiens, UniProt O60894+Q16602) (Q16602 whole entry, one chain of several): as the sequence (Q16602 whole entry) above

Take `O=C(Cn1c(=O)n(-c2ccccc2)c2ccccc21)Nc1ccc2c(c1)CC1(C2)NC(=O)NC1=O` (centres undefined): the Ki in [1] was determined as 87 nM. Also, in data set [2], the IC50 amounted to 430 nM.

For `CN1C(=O)NC(=O)[C@]12Cc1ccc(NC(=O)Cn3c(=O)oc4ccccc43)cc1C2`, the Ki in [1] is 48 nM. Besides, the IC50 in data set [2] came to 350 nM.

The molecule `CN1C(=O)NC(=O)[C@]12Cc1ccc(NC(=O)Cn3c(=O)n(C4CCOC4)c4ccccc43)cc1C2` (some centres undefined) gave a clearance in [3] of 9 mL/min/kg. In data set [4], this molecule registered a bioavailability of 5%. In addition, the Vdss in the data set with Rattus norvegicus is 0.43 L/kg. Also, in [1], the Ki amounted to 20 nM. The IC50 in data set [2] was determined as 61 nM. The same molecule gave a half-life in [5] of 54 min.

`CN1C(=O)NC(=O)[C@]12Cc1ccc(NC(=O)Cn3c(=O)n(-c4cncnc4)c4ccccc43)cc1C2` yielded a clearance in data set [3] of 46 mL/min/kg. This molecule also yielded a bioavailability in data set [4] of 0%. The molecule further displayed a Vdss in the data set with Rattus norvegicus of 0.95 L/kg. The inhibition constant (Ki) in data set [1] came to 9.5 nM. Further, the IC50 in data set [2] was determined as 50 nM. For the same molecule, the solubility in data set [6] was more than 100 µg/mL. This molecule showed a half-life in data set [5] of 30 min.

In the case of `O=C(Cn1c(=O)oc2ccccc21)Nc1ccc2c(c1)CC1(C2)NC(=O)NC1=O` (centres undefined), the Ki in data set [1] worked out at 309 nM. Also, the IC50 in [2] was 2900 nM.

Turning to `COc1cccc(-n2c(=O)n(CC(=O)Nc3ccc4c(c3)C[C@]3(C4)C(=O)NC(=O)N3C)c3ccccc32)n1`, in data set [3], the clearance came out at 11 mL/min/kg. Also, the bioavailability in data set [4] stood at 13%. Moreover, the Vdss in the data set on Rattus norvegicus was determined as 0.84 L/kg. Besides, the Ki in data set [1] worked out at 15 nM. For the same molecule, the IC50 in data set [2] came to 54 nM. This molecule had a half-life in [5] of 72 min.

Regarding `CN1C(=O)NC(=O)C12Cc1ccc(NC(=O)Cn3c(=O)oc4ccccc43)cc1C2` (centres undefined), the Ki in data set [1] worked out at 103 nM. The IC50 in data set [2] was determined as 1400 nM.

As to `CN1C(=O)NC(=O)[C@@]12Cc1ccc(NC(=O)Cn3c(=O)oc4ccccc43)cc1C2`, the Ki in [1] was 1050 nM.

In the case of `CN1C(=O)NC(=O)[C@]12Cc1ccc(NC(=O)Cn3c(=O)n(-c4ccccn4)c4ccccc43)cc1C2`, the IC50 at Cytochrome P450 3A4, on Cytochrome P450 2D6 and against Cytochrome P450 2C9 was more than 10 µM each time. Further, the figures for the bioavailability in data set [7], in data set [4] and in data set [11] were 29%, 36% and 83%, respectively. Besides, the Vdss in the data set with Canis familiaris was 0.69 L/kg; with Rattus norvegicus, 0.47 L/kg; in the data set on Rhesus monkey, 0.31 L/kg. Moreover, the clearance is 0.85 mL/min/kg in data set [8], 3.4 mL/min/kg in data set [3] and 1.7 mL/min/kg in data set [9]. Further, the half-life in [10] was 576 min; in [5], 96 min; in data set [12], 288 min. In data set [6], this molecule showed a solubility of less than 1 µg/mL.

In the case of `CN1C(=O)NC(=O)[C@]12Cc1ccc(NC(=O)Cn3c(=O)n(-c4cnccn4)c4ccccc43)cc1C2`, the clearance in data set [3] is 11 mL/min/kg. In [4], the bioavailability was found to be 1%. Further, the Vdss with Rattus norvegicus came out at 0.64 L/kg. Also, the Ki in data set [1] was found to be 12 nM. The IC50 in data set [2] amounted to 64 nM. Further, the half-life in [5] was 66 min.

As to `O=C(Cn1c(=O)[nH]c2ccccc21)Nc1ccc2c(c1)CC1(C2)NC(=O)NC1=O` (centres undefined), the Ki in [1] was 280 nM. Also, the IC50 in [2] came out at 690 nM.

In turn, `CN1C(=O)NC(=O)[C@]12Cc1ccc(NC(=O)Cn3c(=O)n(-c4cnsc4)c4ccccc43)cc1C2` had a clearance in data set [3] of 60 mL/min/kg. Further, in [4], the bioavailability was found to be 1%. Besides, the Vdss in the data set on Rattus norvegicus worked out at 2 L/kg. In data set [1], the Ki was 6.8 nM. For the same molecule, the IC50 in data set [2] was found to be 39 nM. The half-life in data set [5] is 60 min.

In turn, `CN1C(=O)NC(=O)[C@]12Cc1ccc(NC(=O)Cn3c(=O)n(-c4nccc(C(F)(F)F)n4)c4ccccc43)cc1C2` gave a clearance in data set [3] of 7.5 mL/min/kg. For the same molecule, in [4], the bioavailability came to 0%. In the data set with Rattus norvegicus, this molecule yielded a Vdss of 1.8 L/kg. For the same molecule, the Ki in data set [1] came out at 10 nM. Also, in data set [2], the IC50 is 50 nM. For the same molecule, the half-life in [5] was 168 min.

For the molecule `CN1C(=O)NC(=O)[C@]12Cc1ccc(NC(=O)Cn3c(=O)n(-c4cc(F)cc(F)c4)c4ccccc43)cc1C2`, in data set [3], the clearance is 3.1 mL/min/kg. Further, the bioavailability in data set [4] came out at 24%. Also, the Vdss with Rattus norvegicus stood at 1.4 L/kg. Besides, the Ki in [1] is 29 nM. Besides, in [2], the IC50 came to 180 nM. The half-life in [5] is 390 min.

Regarding `CN1C(=O)NC(=O)[C@]12Cc1ccc(NC(=O)Cn3c(=O)n(C4CCS(=O)(=O)C4)c4ccccc43)cc1C2` (some centres undefined), the clearance in [3] worked out at 31 mL/min/kg. This molecule also displayed a bioavailability in data set [4] of 0%. In addition, in the data set with Rattus norvegicus, the Vdss is 0.8 L/kg. In addition, in data set [1], the Ki stood at 17 nM. Further, the IC50 in [2] stood at 64 nM. Moreover, the solubility in [6] is more than 100 µg/mL. In addition, the half-life in data set [5] was 66 min.

`CN1C(=O)NC(=O)[C@]12Cc1ccc(NC(=O)Cn3c(=O)n(-c4nccs4)c4ccccc43)cc1C2`: the clearance in data set [3] stood at 3.7 mL/min/kg. Further, the bioavailability in data set [4] was found to be 20%. In addition, in the data set with Rattus norvegicus, the Vdss is 0.54 L/kg. Moreover, in data set [1], the Ki came out at 8.7 nM. Moreover, in data set [2], the IC50 worked out at 24 nM. Further, the solubility in [6] is less than 1 µg/mL. Moreover, the half-life in data set [5] is 120 min.

For the molecule `O=C(Cn1c(=O)oc2ccccc21)Nc1ccc2c(c1)CCC1(C2)NC(=O)NC1=O` (centres undefined), the Ki in [1] came out at 607 nM. Moreover, the IC50 in data set [2] worked out at 3300 nM.

On to `CN1C(=O)NC(=O)[C@]12Cc1ccc(NC(=O)Cn3c(=O)n(-c4ncccn4)c4ccccc43)cc1C2`, for which the clearance in [3] came to 23 mL/min/kg. Besides, the bioavailability in data set [4] was 2%. In the data set with Rattus norvegicus, this molecule had a Vdss of 0.5 L/kg. Moreover, the Ki in data set [1] was 25 nM. Besides, the IC50 in data set [2] is 110 nM. The molecule further had a half-life in data set [5] of 66 min.

With `Cn1c(=O)n(CC(=O)Nc2ccc3c(c2)CC2(C3)NC(=O)NC2=O)c2ccccc21` (centres undefined), in [1], the Ki was determined as 78 nM. Also, in data set [2], the IC50 turned out to be 530 nM.

By Ki is commonly meant a measure of affinity in units of concentration, obtained from inhibition or displacement. The IC50 is the point on the concentration scale where inhibition reaches its midpoint. Broadly, the clearance is a measure of how efficiently the substance is removed, as volume per time. A word on the bioavailability: it is dose-corrected exposure relative to a reference, in per cent. As a reminder, the Vdss is a proportionality between amount in the body and measured concentration, not a real space. For orientation: half-life means the time needed for the level to fall by half in the phase considered. For orientation: solubility means how much of the substance goes into solution per volume.
